In patent publication US20260256792A1, “TREATMENT OF CHRONIC SPONTANEOUS URTICARIA BY ADMINISTERING (R)-2-[3-[4-AMINO-3-(2-FLUORO-4-PHENOXY-PHENYL)PYRAZOLO[3,4-D]PYRIMIDIN-1-YL]PIPERIDINE-1-CARBONYL]-4-METHYL-4-[4-(OXETAN-3-YL)PIPERAZIN-1-YL]PENT-2-ENENITRILE” (priority 2023, published 2026):

System: moderate-to-severe chronic spontaneous urticaria (CSU)
Assay: Phase 2 CSU study: hives severity score over 7 days (HSS7)
Type: in vivo, human
Parameters: key to HSS7 Change from baseline, Median / HSS7, Median / HSS7, Max / HSS7 Change from baseline, Q1 / HSS7 Change from baseline, Q3 / HSS7 Change from baseline, Max: 7-day sum of daily hive scores, each 0 = none to 3 = >50 hives
Description: The study comprises a 12 week, randomized, double-blind, placebo-controlled, multi-center, dose-ranging efficacy and safety phase, followed by a 40 week open label extension (OLE) phase (see FIG. 1).
The study consists of three phases and an optional OLE phase.
The UAS is a validated PRO measure. The daily UAS is the sum of the daily Hive Severity Score (HSS, ranging from 0=None to 3=more than 50 hives) and the daily Itch Severity Score (ISS, ranging from 0=None to 3=intense), the 2 key urticaria signs and symptoms which are wheals and itch. The daily UAS scores range from 0 to 6 point/day. Daily UAS scores are summed over 7-day period to create the UAS7, ranging from 0 to 42, and are composed of the HSS7 and ISS7 components. […] Patients were to complete the UAS using the e-diary. The e-diary was to be used once daily on the same time of each day recording of participant's answers to the urticaria activity score over 7 days (UAS7) questionnaire. For participants who entered the OLE phase, their answers to the UAS7 questionnaire were also to be collected from Week 20 to Week24 and from Week 48 to Week 52.
The following secondary endpoints were to be analyzed using the same approach as for the primary endpoint: • Change from baseline in UAS7 at Week 4 • Change from baseline in UAS7 at Week 12 (for US and US reference countries) • Change from baseline in ISS7 at Week 12 (except US and US reference countries) • Change from baseline in HSS7 at Week 12

[1] = Week 4, 400 mg BID, Omalizumab-Naïve Population
[2] = Week 4, 400 mg BID, Patients with Prior Omalizumab Use
[3] = Week 4, 400 mg QPM, Omalizumab-Naïve Population
[4] = Week 4, 400 mg QPM, Patients with Prior Omalizumab Use
[5] = Week 4, 400 mg TID, Omalizumab-Naïve Population
[6] = Week 4, 400 mg TID, Patients with Prior Omalizumab Use
[7] = Week 5, 400 mg BID, Omalizumab-Naïve Population
[8] = Week 5, 400 mg BID, Patients with Prior Omalizumab Use
[9] = Week 5, 400 mg QPM, Omalizumab-Naïve Population
[10] = Week 5, 400 mg QPM, Patients with Prior Omalizumab Use
[11] = Week 5, 400 mg TID, Omalizumab-Naïve Population
[12] = Week 5, 400 mg TID, Patients with Prior Omalizumab Use
[13] = Week 6, 400 mg BID, Omalizumab-Naïve Population
[14] = Week 6, 400 mg BID, Patients with Prior Omalizumab Use
[15] = Week 6, 400 mg QPM, Omalizumab-Naïve Population
[16] = Week 6, 400 mg QPM, Patients with Prior Omalizumab Use
[17] = Week 6, 400 mg TID, Omalizumab-Naïve Population
[18] = Week 6, 400 mg TID, Patients with Prior Omalizumab Use

CC(C)(C=C(C#N)C(=O)N1CCC[C@@H](n2nc(-c3ccc(Oc4ccccc4)cc3F)c3c(N)ncnc32)C1)N1CCN(C2COC2)CC1 [rilzabrutinib, (R)-2-[3-[4-amino-3-(2-fluoro-4-phenoxy-phenyl)pyrazolo[3,4-d]pyrimidin-1-yl]piperidine-1-carbonyl]-4-methyl-4-[4-(oxetan-3-yl)piperazin-1-yl]pent-2-enenitrile]
HSS7, Mean (SD) [1]: 7.60 (6.00) | HSS7, Median [1]: 7.00 | HSS7 Change from baseline, Mean (SD) [1]: −6.54 (5.34) | HSS7 Change from baseline, Median [1]: −6.00 | HSS7 Percent change from baseline, Mean (SD) [1]: −47.44 (37.17) % | HSS7 Percent change from baseline, Median [1]: −42.86% | HSS7, Mean (SD) [2]: 6.80 (8.04) | HSS7, Median [2]: 2.00 | HSS7 Change from baseline, Mean (SD) [2]: −10.00 (8.34) | HSS7 Change from baseline, Median [2]: −12.00 | HSS7 Percent change from baseline, Mean (SD) [2]: −60.22 (47.52) % | HSS7 Percent change from baseline, Median [2]: −88.24% | HSS7 Change from baseline, Mean (SD) [3]: −4.20 (4.74) | HSS7 Change from baseline, Median [3]: −3.00 | HSS7 Percent change from baseline, Mean (SD) [3]: −26.30 (29.41) % | HSS7 Percent change from baseline, Median [3]: −16.67% | HSS7, Mean (SD) [4]: 10.00 (NC) | HSS7 Change from baseline, Mean (SD) [4]: −10.00 (NC) | HSS7 Change from baseline, Median [4]: −10.00 | HSS7 Percent change from baseline, Mean (SD) [4]: −50.00 (NC) % | HSS7 Percent change from baseline, Median [4]: −50.00% | HSS7, Mean (SD) [5]: 6.85 (4.96) | HSS7, Median [5]: 6.50 | HSS7 Change from baseline, Mean (SD) [5]: −7.21 (5.24) | HSS7 Change from baseline, Median [5]: −6.58 | HSS7 Percent change from baseline, Mean (SD) [5]: −50.43 (33.03) % | HSS7 Percent change from baseline, Median [5]: −50.69% | HSS7, Mean (SD) [6]: 3.92 (4.26) | HSS7, Median [6]: 3.17 | HSS7 Change from baseline, Mean (SD) [6]: −12.11 (6.81) | HSS7 Change from baseline, Median [6]: −12.42 | HSS7 Percent change from baseline, Mean (SD) [6]: −73.06 (22.97) % | HSS7 Percent change from baseline, Median [6]: −76.19% | HSS7, Mean (SD) [7]: 8.34 (6.75) | HSS7, Median [7]: 7.00 | HSS7 Change from baseline, Mean (SD) [7]: −6.01 (5.82) | HSS7 Change from baseline, Median [7]: −7.00 | HSS7 Percent change from baseline, Mean (SD) [7]: −43.27 (41.28) % | HSS7 Percent change from baseline, Median [7]: −42.86% | HSS7, Mean (SD) [8]: 4.25 (8.50) | HSS7, Median [8]: 0.00 | HSS7 Change from baseline, Median [8]: −14.50 | HSS7 Percent change from baseline, Mean (SD) [8]: −75.00 (50.00) % | HSS7 Percent change from baseline, Median [8]: −100.00% | HSS7, Mean (SD) [9]: 9.63 (5.13) | HSS7, Median [9]: 8.20 | HSS7 Change from baseline, Mean (SD) [9]: −5.12 (5.22) | HSS7 Change from baseline, Median [9]: −3.50 | HSS7 Percent change from baseline, Mean (SD) [9]: −32.44 (31.06) % | HSS7 Percent change from baseline, Median [9]: −26.11% | HSS7, Mean (SD) [10]: 8.00 (NC) | HSS7, Median [10]: 8.00 | HSS7 Change from baseline, Mean (SD) [10]: −12.00 (NC) | HSS7 Change from baseline, Median [10]: −12.00 | HSS7 Percent change from baseline, Mean (SD) [10]: −60.00 (NC) % | HSS7 Percent change from baseline, Median [10]: −60.00% | HSS7, Mean (SD) [11]: 6.49 (5.14) | HSS7, Median [11]: 6.00 | HSS7 Change from baseline, Mean (SD) [11]: −7.57 (5.71) | HSS7 Change from baseline, Median [11]: −7.00 | HSS7 Percent change from baseline, Mean (SD) [11]: −52.28 (34.93) % | HSS7 Percent change from baseline, Median [11]: −50.00% | HSS7, Mean (SD) [12]: 3.42 (4.45) | HSS7, Median [12]: 2.50 | HSS7 Change from baseline, Mean (SD) [12]: −12.61 (7.49) | HSS7 Change from baseline, Median [12]: −12.00 | HSS7 Percent change from baseline, Mean (SD) [12]: −75.12 (24.22) % | HSS7 Percent change from baseline, Median [12]: −75.37% | HSS7, Mean (SD) [13]: 8.17 (6.62) | HSS7, Median [13]: 7.00 | HSS7 Change from baseline, Mean (SD) [13]: −6.17 (6.01) | HSS7 Change from baseline, Median [13]: −6.42 | HSS7 Percent change from baseline, Mean (SD) [13]: −43.56 (44.25) % | HSS7 Percent change from baseline, Median [13]: −47.73% | HSS7, Mean (SD) [14]: 5.97 (7.25) | HSS7, Median [14]: 3.50 | HSS7 Change from baseline, Mean (SD) [14]: −8.83 (9.41) | HSS7 Change from baseline, Median [14]: −12.00 | HSS7 Percent change from baseline, Mean (SD) [14]: −50.00 (62.36) % | HSS7 Percent change from baseline, Median [14]: −83.33% | HSS7, Mean (SD) [15]: 9.94 (5.76) | HSS7, Median [15]: 8.28 | HSS7 Change from baseline, Mean (SD) [15]: −5.20 (5.64) | HSS7 Change from baseline, Median [15]: −4.50 | HSS7 Percent change from baseline, Mean (SD) [15]: −33.60 (35.00) % | HSS7 Percent change from baseline, Median [15]: −37.09% | HSS7, Mean (SD) [16]: 8.00 (NC) | HSS7, Median [16]: 8.00 | HSS7 Change from baseline, Mean (SD) [16]: −12.00 (NC) | HSS7 Change from baseline, Median [16]: −12.00 | HSS7 Percent change from baseline, Mean (SD) [16]: −60.00 (NC) % | HSS7 Percent change from baseline, Median [16]: −60.00% | HSS7, Mean (SD) [17]: 6.78 (5.55) | HSS7, Median [17]: 6.00 | HSS7 Change from baseline, Mean (SD) [17]: −7.22 (6.24) | HSS7 Change from baseline, Median [17]: −7.00 | HSS7 Percent change from baseline, Mean (SD) [17]: −49.49 (37.97) % | HSS7 Percent change from baseline, Median [17]: −46.15% | HSS7, Mean (SD) [18]: 2.83 (4.62) | HSS7, Median [18]: 1.00 | HSS7 Change from baseline, Mean (SD) [18]: −13.19 (6.97) | HSS7 Change from baseline, Median [18]: −13.00 | HSS7 Percent change from baseline, Mean (SD) [18]: −81.39 (23.52) % | HSS7 Percent change from baseline, Median [18]: −91.50%
